{"source": "PubChem BioAssay (NCI)", "test_in_all_cases": "NCI anticancer screen, dose series, 48 h", "key": {"[1]": {"system": "NCI-H23 lung"}, "[2]": {"system": "NCI-H460 lung"}, "[3]": {"system": "NCI-H522 lung"}, "[4]": {"system": "NCI/ADR-RES ovarian"}, "[5]": {"system": "OVCAR-3 ovarian"}, "[6]": {"system": "OVCAR-4 ovarian"}, "[7]": {"system": "OVCAR-5 ovarian"}, "[8]": {"system": "OVCAR-8 ovarian"}, "[9]": {"system": "PC-3 prostate"}, "[10]": {"system": "RPMI-8226 leukemia"}, "[11]": {"system": "RXF 393 renal"}, "[12]": {"system": "SF-268 CNS"}, "[13]": {"system": "SF-295 CNS"}, "[14]": {"system": "SF-539 CNS"}, "[15]": {"system": "SK-MEL-28 melanoma"}, "[16]": {"system": "SK-MEL-5 melanoma"}, "[17]": {"system": "SK-OV-3 ovarian"}, "[18]": {"system": "SN12C renal"}, "[19]": {"system": "SNB-19 CNS"}, "[20]": {"system": "SNB-75 CNS"}, "[21]": {"system": "SR leukemia"}, "[22]": {"system": "SW-620 colon"}, "[23]": {"system": "T-47D breast"}, "[24]": {"system": "TK-10 renal"}, "[25]": {"system": "U251 CNS"}, "[26]": {"system": "UACC-257 melanoma"}, "[27]": {"system": "UACC-62 melanoma"}, "[28]": {"system": "UO-31 renal"}}, "note": "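Five concentrations, 48 hours, 96-well plates. Here, GI50 denotes the concentration required for 50% inhibition of growth. TGI is the concentration that stops growth completely.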", "data": [{"smiles": "O=C(N/N=C/c1ccc([N+](=O)[O-])cc1)c1ccccc1Nc1ccnc(C(F)(F)F)c1", "values": [{"measurement": "TGI", "setting": "[1]", "value": "> 100", "unit": "µM"}, {"measurement": "GI50", "setting": "[2]", "value": 21.3, "unit": "µM"}, {"measurement": "TGI", "setting": "[2]", "value": 52.9, "unit": "µM"}, {"measurement": "GI50", "setting": "[3]", "value": 12.5, "unit": "µM"}, {"measurement": "TGI", "setting": "[3]", "value": 38.3, "unit": "µM"}, {"measurement": "GI50", "setting": "[4]", "value": 16.8, "unit": "µM"}, {"measurement": "TGI", "setting": "[4]", "value": 58.7, "unit": "µM"}, {"measurement": "GI50", "setting": "[5]", "value": 4.54, "unit": "µM"}, {"measurement": "TGI", "setting": "[5]", "value": "> 100", "unit": "µM"}, {"measurement": "GI50", "setting": "[6]", "value": 14.2, "unit": "µM"}, {"measurement": "TGI", "setting": "[6]", "value": 56.3, "unit": "µM"}, {"measurement": "GI50", "setting": "[7]", "value": 24.6, "unit": "µM"}, {"measurement": "TGI", "setting": "[7]", "value": "> 100", "unit": "µM"}, {"measurement": "GI50", "setting": "[8]", "value": 11.6, "unit": "µM"}, {"measurement": "TGI", "setting": "[8]", "value": 49.8, "unit": "µM"}, {"measurement": "GI50", "setting": "[9]", "value": 12.9, "unit": "µM"}, {"measurement": "TGI", "setting": "[9]", "value": 29.7, "unit": "µM"}, {"measurement": "GI50", "setting": "[10]", "value": 1.61, "unit": "µM"}, {"measurement": "TGI", "setting": "[10]", "value": 14.5, "unit": "µM"}, {"measurement": "GI50", "setting": "[11]", "value": 15.4, "unit": "µM"}, {"measurement": "TGI", "setting": "[11]", "value": 42.8, "unit": "µM"}, {"measurement": "GI50", "setting": "[12]", "value": 10.5, "unit": "µM"}, {"measurement": "TGI", "setting": "[12]", "value": 82.8, "unit": "µM"}, {"measurement": "GI50", "setting": "[13]", "value": 11.2, "unit": "µM"}, {"measurement": "TGI", "setting": "[13]", "value": 32.4, "unit": "µM"}, {"measurement": "GI50", "setting": "[14]", "value": 30.3, "unit": "µM"}, {"measurement": "TGI", "setting": "[14]", "value": "> 100", "unit": "µM"}, {"measurement": "GI50", "setting": "[15]", "value": 14.8, "unit": "µM"}, {"measurement": "TGI", "setting": "[15]", "value": 64.2, "unit": "µM"}, {"measurement": "GI50", "setting": "[16]", "value": 19.1, "unit": "µM"}, {"measurement": "TGI", "setting": "[16]", "value": 42.3, "unit": "µM"}, {"measurement": "GI50", "setting": "[17]", "value": 28, "unit": "µM"}, {"measurement": "TGI", "setting": "[17]", "value": 81.4, "unit": "µM"}, {"measurement": "GI50", "setting": "[18]", "value": 26.3, "unit": "µM"}, {"measurement": "TGI", "setting": "[18]", "value": "> 100", "unit": "µM"}, {"measurement": "GI50", "setting": "[19]", "value": 23.9, "unit": "µM"}, {"measurement": "TGI", "setting": "[19]", "value": "> 100", "unit": "µM"}, {"measurement": "GI50", "setting": "[20]", "value": 18.2, "unit": "µM"}, {"measurement": "TGI", "setting": "[20]", "value": 70.3, "unit": "µM"}, {"measurement": "GI50", "setting": "[21]", "value": 1.5, "unit": "µM"}, {"measurement": "TGI", "setting": "[21]", "value": 20.2, "unit": "µM"}, {"measurement": "GI50", "setting": "[22]", "value": 13.3, "unit": "µM"}, {"measurement": "TGI", "setting": "[22]", "value": 88.1, "unit": "µM"}, {"measurement": "GI50", "setting": "[23]", "value": 21.6, "unit": "µM"}, {"measurement": "TGI", "setting": "[23]", "value": 82.4, "unit": "µM"}, {"measurement": "GI50", "setting": "[24]", "value": 0.0799, "unit": "µM"}, {"measurement": "TGI", "setting": "[24]", "value": 20.2, "unit": "µM"}, {"measurement": "GI50", "setting": "[25]", "value": 16.6, "unit": "µM"}, {"measurement": "TGI", "setting": "[25]", "value": "> 100", "unit": "µM"}, {"measurement": "GI50", "setting": "[26]", "value": 11.6, "unit": "µM"}, {"measurement": "TGI", "setting": "[26]", "value": 37.9, "unit": "µM"}, {"measurement": "GI50", "setting": "[27]", "value": 13.3, "unit": "µM"}, {"measurement": "TGI", "setting": "[27]", "value": 38.3, "unit": "µM"}, {"measurement": "GI50", "setting": "[28]", "value": 16.6, "unit": "µM"}, {"measurement": "TGI", "setting": "[28]", "value": 59.6, "unit": "µM"}]}]}
